# Laboratory results reported in US20200268847A1, “Methods of Treating Newly Diagnosed Multiple Myeloma with a Combination of An Antibody that Specifically Binds CD38, Lenalidomide and Dexamethasone” (Janssen Biotech, Inc., priority 2019, published 2020).
# Experiments:
# [1] = test system: newly diagnosed multiple myeloma, patients ineligible for HDC and ASCT; test: Phase 3 MAIA study (NCT02252172), interim analysis: progression-free survival, response by IMWG criteria, survival; format: in vivo, human
# Protocol: Subject participation will include a Screening Phase, a Treatment Phase, and a Follow-up Phase. The Screening Phase will be up to 21 days before Cycle 1, Day 1. The Treatment Phase will extend from Day 1 of Cycle 1 until discontinuation of all study treatment. […] This will equate to […] of dosing at the start of the study and a total of 23 doses in the first year. Lenalidomide will be administered at a dose of 25 mg orally (PO) on Days 1 through 21 of each 28-day cycle, and dexamethasone will be administered at a dose of 40 mg once a week. Subjects in both treatment arms will continue lenalidomide and dexamethasone until disease progression or unacceptable toxicity. […] Randomization will be stratified by International Staging System (I vs II vs III), region (North America vs Other), and age (<75 vs >75), using an equal allocation ratio of 1:1.
# The primary endpoint is PFS, which is defined as the duration from the date of randomization to either progressive disease, or death, whichever occurs first. Disease progression will be determined according to the IMWG criteria.
# The secondary efficacy endpoints include: • Time to disease progression (TTP) is defined as the time from the date of randomization to the date of first documented evidence of PD, as defined in the IMWG criteria. […] Disease progression will be based on investigator judgment. For those subjects who are still alive and not yet progressed on the next line of treatment, they will be censored on the last date of follow-up. • Overall survival (OS), measured from the date of randomization to the date of the subject's death. […] For subjects without response, data will be censored either at the date of progressive disease or, in the absence of progressive disease, at the last disease evaluation before the start of subsequent anti-myeloma therapy. • Duration of response, calculated from the date of initial documentation of a response (PR or better) to the date of first documented evidence of progressive disease, as defined in the IMWG criteria. For subjects who have not progressed, data will be censored at the last disease evaluation before the start of any subsequent anti-myeloma therapy. • To evaluate clinical efficacy of DRd in high risk molecular subgroups compared to Rd alone. • To evaluate the impact of DRd compared to Rd on patient-reported perception of global health.
# Disease evaluations will be performed by a central laboratory (unless otherwise specified). This study will use the IMWG consensus recommendations for multiple myeloma treatment response criteria (Durie et al., Leukemia, 20:[…], 2006, Rajkumar et al., Blood, 117:4691-4695, 2011) presented in Table 1. For quantitative immunoglobulin, M-protein, and immunofixation measurements in serum and 24 hour urine, the investigator will use results provided by the central laboratory.
# The primary endpoint was progression-free survival. The study protocol is described in Example 1.
# Patients were stratified by International Staging System (ISS; I vs. II vs. III), region (North America vs. Other), and age (<75 years vs. >75 years).
# During each 28-day cycle, all patients received oral lenalidomide (25 mg, Days 1-21) and oral dexamethasone (40 mg, Days 1, 8, 15, and 22) until disease progression or unacceptable toxicity. For patients older than 75 years of age or with body mass index less than 18.5 kg/m^2, dexamethasone was administered at a dose of 20 mg once weekly. […] Pre-infusion medications were administered to manage infusion reactions.
# The primary endpoint was progression-free survival (time from date of randomization to either disease progression or death).
# [2] = test system: transplant-ineligible newly diagnosed multiple myeloma (NDMM); test: MAIA subgroup analysis by age (<75 vs ≥75 y): efficacy; format: in vivo, human; conditions: for PFS HR (95% CI): DRd vs Rd
# Protocol: To examine the impact of age on the efficacy and safety of D-Rd vs Rd in this patient population, a subgroup analysis was conducted within patients <75 and >75 y of age.
# Transplant-ineligible NDMM patients were randomized 1:1 to Rd±DARA; stratification was based on age (<75 vs >75 years), ISS (I, II, III), and region (North America vs Other). In standard Rd dosing, patients received 28-day cycles of lenalidomide 25 mg PO QD on Days 1-21 and dexamethasone 40 mg PO on Days 1, 8, 15 and 22 until progression. A portion of patients received 10 mg lenalidomide and 20 mg dexamethasone at the beginning of the treatment. In the DRd arm, patients received daratumumab (DARZALEX®) 16 mg/kg IV QW for Cycles 1-2, Q2W for Cycles 3-6, and Q4W thereafter until progression. PFS was the primary endpoint.
# [3] = ITT population, median follow-up 28.0 months
substance,measurement,setting,value
daratumumab (DARZALEX®) group: daratumumab (DARZALEX®) in combination with lenalidomide and dexamethasone,events of progression or death while receiving the next line of therapy,[1]; 155 events in total,68 patients
same,patients with disease progression events (time-to-event analysis of disease progression),[1]; 179 events in total,17.9%
same,reduction of the risk of progression or death,"[1]; DRd vs Rd, primary analysis of MAIA",44%
same,Kaplan-Meier estimate of the 30-month rate of progression-free survival,[1]; ITT population,70.6%
same,median time to progression,[1]; ITT population,not being reached
same,Overall response: No. with response,"[1]; ITT population (N = 368 vs 369), median follow-up 28.0 months",342
same,median overall survival,"[1]; ITT population, long-term follow-up ongoing",not reached
same,median progression-free survival,"[1]; ITT population, median follow-up 28 months",not reached
same,Best overall response: Complete response,[1]; [3],63 (17.1) no. (%)
same,Best overall response: Complete response or better,[1]; [3],175 (47.6) no. (%)
same,Best overall response: Partial response,[1]; [3],50 (13.6) no. (%)
same,Best overall response: Progressive disease,[1]; [3],1 (0.3) no. (%)
same,Best overall response: Response could not be evaluated,[1]; [3],14 (3.8) no. (%)
same,Best overall response: Stringent complete response,[1]; [3],112 (30.4) no. (%)
same,Best overall response: Very good partial response,[1]; [3],117 (31.8) no. (%)
same,Best overall response: Very good partial response or better,[1]; [3],292 (79.3) no. (%)
same,Overall response rate,[1]; [3],92.9%
same,rate of complete response or better,"[1]; ITT population, P<0.0001",47.6%
same,rate of very good partial response or better,"[1]; ITT population, P<0.0001",79.3%
same,treatment discontinued due to progressive disease,"[1]; at clinical cutoff date Sep. 24, 2018",14.6%
same,36-month rate of progression-free survival 2,[1]; in vivo,77.1%
same,median duration of response,[1]; in vivo,not reached
same,median time to complete response or better,[1]; in vivo,10.4 months
same,median time to first response among responders,[1]; in vivo,1.05 months
same,patients with events of disease progression or death,"[1]; median follow-up 28.0 months, 240 events in total",26.4%
same,deaths,"[1]; number of deaths, 138 in total, median follow-up 28.0 months",62
same,median progression-free survival 2,[1]; progression on next line of therapy or death,not reached
same,30-mo PFS,[2]; <75 y,75%
same,MRD-negative rate (10^−5),[2]; <75 y,28%
same,ORR,[2]; <75 y,95%
same,≥CR,[2]; <75 y,52%
same,≥VGPR,[2]; <75 y,81%
same,PFS HR (95% CI),"[2]; <75 y, listed as D-Rd",0.50
same,PFS HR (95% CI),"[2]; <75 y, listed as DRd",0.50 (0.35-0.71)
same,PFS Median,"[2]; <75 y, median follow-up 28 months, listed as D-Rd",not reached
same,30-mo PFS,[2]; ≥75 y,66%
same,MRD-negative rate (10^−5),[2]; ≥75 y,19%
same,ORR,[2]; ≥75 y,90%
same,≥CR,[2]; ≥75 y,41%
same,≥VGPR,[2]; ≥75 y,77%
same,PFS HR (95% CI),"[2]; ≥75 y, listed as D-Rd",0.63
same,PFS HR (95% CI),"[2]; ≥75 y, listed as DRd",0.63 (0.44-0.92)
